For one molecule, IC50 results are on record in publication PMC11480511 (Scientific Reports, 2024).

As usually defined, the IC50 is the concentration that gives 50% inhibition.

The structures appear in SMILES notation.

Data set [1] concerns the target T1, topoisomerase IIβ (Homo sapiens, UniProt Q02880).
T1 construct: purchased
Nature of the data set: Topoisomerase II inhibition, human DNA topoisomerase Elisa kit. Format: biochemical. As to conditions: ± SEM; read-out: Topoisomerase II IC50 µM ± SEM. Here is the method:
(§1) Two folds of serial dilution was accomplished after standards and the tested compounds were dissolved in sample diluent. Horseradish peroxidase (HRP-avidin) and biotin-conjugated antibody were diluted 10 times each. Each well received 100 µL of each concentration of the standard or test chemicals, which were then added and incubated at 37 °C for 60 min. […] The microtiter plate was rinsed three times and given room to aspirate. After that, the plate was incubated at 37 °C for 60 min with 100 µL of HRP-avidin solution added to each well. After that, the plate was aspirated and cleaned 5 times. Each well received 90 µL of TMB substrate, and the plate was incubated for 30 min. at 37 °C in a light-protected environment. Finally, stop solution (50 µL) was loaded, and within 5 min, the absorbance at 450 nm was measured spectrophotometrically.
(§2) Topoisomerase enzyme assay
(§3) Topoisomerase I and II inhibitory activity […]
(§4) topoisomerase IIβ inhibitory activity utilizing the human DNA topoisomerase Elisa kit.
(§5) Standards and the tested compound were dissolved in sample diluent and 2 folds serial dilution was achieved. Biotin-conjugated antibody and avidin conjugated Horseradish Peroxidase (HRP-avidin) were diluted to 10 folds. 100 μL of each concentration of standard or test compound were added to each well. Incubate at 37 °C for 1 h. The liquid in each well was removed. 10 0 μL of Biotin-conjugated antibody solution was added to each well followed by incubation for 1 h at 37 °C. The microtiter plate was allowed to aspirate and washed 3 times. 100 μL of avidin conjugated Horseradish Peroxidase (HRP -avidin) solution was added to each well and the plate was incubated for 1 h at 37 °C. The plate was aspirated and washed 5 times. 90 μL of TMB substrate were added to each well and the plate was incubated for 30 min at 37 °C and protected from light. 50 μL stop so lution was added. The absorbance was measured spectrophotometrically within 5 min at 450 nm .

For data set [2], the system named is A498 renal cancer cell line. The conditions noted are these: read-out: In vitro cytotoxicity (IC50) A498 cell line (µM ± SEM), A498, MTT assay. For orientation: Tetrazolium dyes change colour on reduction, which living cells bring about.
The target in data set [3] is T2, topoisomerase Iα (Homo sapiens, UniProt P11387).
T2 construct: purchased
T2 sequence (P11387 1-765): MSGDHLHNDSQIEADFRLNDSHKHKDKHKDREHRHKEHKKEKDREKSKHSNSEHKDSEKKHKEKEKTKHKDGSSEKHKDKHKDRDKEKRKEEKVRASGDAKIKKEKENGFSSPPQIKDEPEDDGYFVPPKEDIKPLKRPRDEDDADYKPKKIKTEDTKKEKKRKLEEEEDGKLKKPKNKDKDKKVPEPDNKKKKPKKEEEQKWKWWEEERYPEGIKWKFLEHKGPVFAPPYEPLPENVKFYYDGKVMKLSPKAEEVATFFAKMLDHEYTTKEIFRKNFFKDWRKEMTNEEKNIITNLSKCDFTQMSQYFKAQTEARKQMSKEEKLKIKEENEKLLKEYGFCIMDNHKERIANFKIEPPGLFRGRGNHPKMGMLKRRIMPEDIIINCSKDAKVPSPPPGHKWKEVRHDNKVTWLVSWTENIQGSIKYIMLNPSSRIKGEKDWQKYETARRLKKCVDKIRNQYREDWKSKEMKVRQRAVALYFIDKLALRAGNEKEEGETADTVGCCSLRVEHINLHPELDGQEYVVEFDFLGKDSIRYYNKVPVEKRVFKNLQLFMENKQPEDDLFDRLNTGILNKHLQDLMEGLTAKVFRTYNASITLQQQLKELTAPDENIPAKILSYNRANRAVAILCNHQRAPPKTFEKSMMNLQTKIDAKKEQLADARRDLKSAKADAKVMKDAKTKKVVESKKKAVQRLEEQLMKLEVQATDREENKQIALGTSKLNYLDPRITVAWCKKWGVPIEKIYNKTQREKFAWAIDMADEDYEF
In words: Topoisomerase I inhibition, human DNA topoisomerase Elisa kit. Format: biochemical. As to conditions: ± SEM. Here is the method: as §1, §2, §3, §4, §5

For data set [4], the system named is human melanoma LOX IMVI. As to conditions: read-out: In vitro cytotoxicity (IC50) LOX IMVI (µM ± SEM), MTT assay.

T1 sequence (Q02880 whole entry): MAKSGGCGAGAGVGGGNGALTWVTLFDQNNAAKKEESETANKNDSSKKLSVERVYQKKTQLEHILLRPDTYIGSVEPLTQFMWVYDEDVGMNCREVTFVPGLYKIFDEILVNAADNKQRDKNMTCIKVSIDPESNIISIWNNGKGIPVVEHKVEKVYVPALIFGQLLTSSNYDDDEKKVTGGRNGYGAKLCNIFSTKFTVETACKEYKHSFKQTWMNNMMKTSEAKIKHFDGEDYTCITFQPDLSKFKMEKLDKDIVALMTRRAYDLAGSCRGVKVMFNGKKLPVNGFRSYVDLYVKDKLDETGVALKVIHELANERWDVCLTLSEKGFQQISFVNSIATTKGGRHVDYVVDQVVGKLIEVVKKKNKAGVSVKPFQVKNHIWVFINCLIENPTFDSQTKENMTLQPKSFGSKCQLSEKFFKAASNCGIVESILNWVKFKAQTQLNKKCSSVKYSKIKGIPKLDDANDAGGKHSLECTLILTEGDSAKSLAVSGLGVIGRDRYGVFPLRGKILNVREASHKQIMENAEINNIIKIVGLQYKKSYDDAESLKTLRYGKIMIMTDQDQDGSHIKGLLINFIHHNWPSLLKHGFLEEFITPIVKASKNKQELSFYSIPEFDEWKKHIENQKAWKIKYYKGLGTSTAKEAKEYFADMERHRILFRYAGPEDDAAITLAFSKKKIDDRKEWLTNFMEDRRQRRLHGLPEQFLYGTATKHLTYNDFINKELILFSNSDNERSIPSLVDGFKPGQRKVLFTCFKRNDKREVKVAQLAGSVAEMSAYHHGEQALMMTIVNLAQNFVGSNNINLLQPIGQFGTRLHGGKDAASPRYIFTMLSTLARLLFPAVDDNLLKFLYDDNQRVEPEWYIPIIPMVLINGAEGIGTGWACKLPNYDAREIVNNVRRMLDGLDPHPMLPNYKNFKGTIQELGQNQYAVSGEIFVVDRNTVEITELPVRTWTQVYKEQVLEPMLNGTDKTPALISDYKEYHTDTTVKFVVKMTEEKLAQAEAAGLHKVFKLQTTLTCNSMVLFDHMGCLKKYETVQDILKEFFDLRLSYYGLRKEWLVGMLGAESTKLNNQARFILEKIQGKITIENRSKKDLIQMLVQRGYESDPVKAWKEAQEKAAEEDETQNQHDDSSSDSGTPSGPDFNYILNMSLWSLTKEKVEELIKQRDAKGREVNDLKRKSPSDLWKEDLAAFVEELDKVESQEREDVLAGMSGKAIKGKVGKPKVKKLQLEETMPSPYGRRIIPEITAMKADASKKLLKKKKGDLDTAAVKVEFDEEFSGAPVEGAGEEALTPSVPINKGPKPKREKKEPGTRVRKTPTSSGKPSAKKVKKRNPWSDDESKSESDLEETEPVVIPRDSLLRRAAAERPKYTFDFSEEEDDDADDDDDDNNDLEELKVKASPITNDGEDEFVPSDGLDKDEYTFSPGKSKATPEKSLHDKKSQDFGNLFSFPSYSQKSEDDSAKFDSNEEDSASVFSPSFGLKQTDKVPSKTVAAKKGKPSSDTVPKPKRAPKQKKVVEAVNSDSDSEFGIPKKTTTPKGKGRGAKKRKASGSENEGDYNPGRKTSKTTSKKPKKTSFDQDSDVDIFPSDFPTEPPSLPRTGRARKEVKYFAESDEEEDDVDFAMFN

As to `N.N.[Cl][Pt][Cl]` [Cisplatin, reference compound], the IC50 in data set [1] worked out at 11.3 ± 0.62 µM; in data set [2], 7.92 ± 0.45 µM; in data set [3], 5.71 ± 0.31 µM; in data set [4], 5.07 ± 0.29 µM.
